From patent US8461328B2, “Tricyclic heterocyclic compounds, compositions and methods of use thereof” (Genentech, Inc., priority 2010, dated 2013) come the findings set out here.

The structures appear in SMILES notation.

Type in all cases: biochemical
The target in one test is T1, JAK1 (Homo sapiens, UniProt P23458).
T1 construct: made in house; host or cells: SF9 insect cells (baculovirus)
Description: JAK1 inhibition (Table 4). Conditions: read-out: JAK1 Ki.

A further test concerns the target T2, JAK2 (Homo sapiens, UniProt O60674).
T2 construct: made in house; host or cells: SF9 insect cells (baculovirus)
Briefly: JAK2 inhibition (Table 4). Conditions: read-out: JAK2 Ki.

For a further test, the target named is T3, JAK3 (Homo sapiens, UniProt P52333).
T3 construct: made in house; host or cells: SF9 insect cells (baculovirus)
T3 sequence (P52333 783-1124): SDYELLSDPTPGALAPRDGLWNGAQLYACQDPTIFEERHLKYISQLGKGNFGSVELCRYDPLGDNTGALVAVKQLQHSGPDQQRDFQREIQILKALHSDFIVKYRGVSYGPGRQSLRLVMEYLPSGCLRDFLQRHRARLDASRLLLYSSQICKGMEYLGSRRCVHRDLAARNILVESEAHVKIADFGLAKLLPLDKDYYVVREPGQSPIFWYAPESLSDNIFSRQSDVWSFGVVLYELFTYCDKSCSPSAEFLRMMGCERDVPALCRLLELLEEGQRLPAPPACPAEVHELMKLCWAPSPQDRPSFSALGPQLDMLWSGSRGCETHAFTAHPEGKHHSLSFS
Briefly: JAK3 inhibition (Table 4). Conditions: read-out: JAK3 Ki.

In a further test the target is T4, TYK2 (Homo sapiens, UniProt P29597).
T4 construct: made in house; host or cells: SF9 insect cells (baculovirus)
T4 sequence (P29597 873-1187): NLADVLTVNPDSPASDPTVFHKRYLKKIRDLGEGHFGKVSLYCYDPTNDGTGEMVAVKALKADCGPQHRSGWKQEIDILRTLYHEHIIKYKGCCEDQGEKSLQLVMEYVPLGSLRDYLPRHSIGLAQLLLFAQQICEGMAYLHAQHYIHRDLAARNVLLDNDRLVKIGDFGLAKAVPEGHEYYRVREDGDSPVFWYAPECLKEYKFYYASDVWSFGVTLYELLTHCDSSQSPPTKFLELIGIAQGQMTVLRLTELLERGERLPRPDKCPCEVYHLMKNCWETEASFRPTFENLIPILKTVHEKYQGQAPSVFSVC
Description: TYK2 inhibition (Table 4).

One may read the Ki as a dissociation constant, usually derived from enzyme kinetics or from competition with a known ligand.

T1 sequence (P23458 852-1154): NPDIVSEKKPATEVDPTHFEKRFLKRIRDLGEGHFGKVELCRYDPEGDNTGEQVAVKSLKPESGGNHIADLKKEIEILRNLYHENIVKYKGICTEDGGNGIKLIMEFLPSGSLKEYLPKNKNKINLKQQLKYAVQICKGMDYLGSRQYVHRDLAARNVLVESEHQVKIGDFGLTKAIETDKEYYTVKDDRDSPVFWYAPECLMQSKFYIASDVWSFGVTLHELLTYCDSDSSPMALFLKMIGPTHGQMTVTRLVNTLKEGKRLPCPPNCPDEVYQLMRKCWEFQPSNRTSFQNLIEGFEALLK
T2 sequence (O60674 812-1132): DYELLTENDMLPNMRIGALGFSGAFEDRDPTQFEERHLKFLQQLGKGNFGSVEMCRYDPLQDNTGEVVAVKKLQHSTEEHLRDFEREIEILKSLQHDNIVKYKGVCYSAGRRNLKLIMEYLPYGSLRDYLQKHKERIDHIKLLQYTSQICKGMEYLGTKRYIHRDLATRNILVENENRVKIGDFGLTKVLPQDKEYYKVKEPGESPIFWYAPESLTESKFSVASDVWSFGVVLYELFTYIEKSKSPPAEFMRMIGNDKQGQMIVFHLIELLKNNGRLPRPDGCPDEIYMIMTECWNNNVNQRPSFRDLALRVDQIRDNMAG

`CS(=O)(=O)NCc1nc2cnc3[nH]ccc3c2n1C1CCN(Cc2ccccc2)CC1(F)F` (racemic) [Example 946, N-[1-(1-Benzyl-3,3-difluoro-piperidin-4-yl)-1,6-dihydro-1,3,5,6-tetraaza-as-indacen-2-ylmethyl]-methanesulfonamide]: the Ki at JAK1 came out at 1.43 nM; at JAK2 it was 9.65 nM; at JAK3, 12.1 nM; at TYK2, 156 nM.

As for `OCc1nc2cnc3[nH]ccc3c2n1C1CCN(Cc2ccccc2)CC1(F)F` (racemic) [Example 947, [1-(1-Benzyl-3,3-difluoro-piperidin-4-yl)-1,6-dihydro-1,3,5,6-tetraaza-as-indacen-2-yl]-methanol], the Ki came out at 0.42 nM at JAK1, 1.29 nM on JAK2, 2.14 nM at JAK3 and 5.63 nM on TYK2.

For `OCc1nc2cnc3[nH]ccc3c2n1C1CCNCC1(F)F` (racemic) [Example 948, [1-(3,3-Difluoro-piperidin-4-yl)-1,6-dihydro-1,3,5,6-tetraaza-as-indacen-2-yl]-methanol], the Ki was 1.23 nM on JAK1, 13.6 nM on JAK2, 5.95 nM at JAK3 and 7.32 nM on TYK2.

For `CN1CCCCCC1C(=O)N1CCC(n2cnc3cnc4[nH]ccc4c32)CC1` (racemic) [Example 953, (1-Methyl-azepan-2-yl)-[4-(6H-1,3,5,6-tetraaza-as-indacen-1-yl)-piperidin-1-yl]-methanone], the Ki is 45.7 nM on JAK1, 455 nM at JAK2, 3480 nM at JAK3 and 1830 nM on TYK2.

In the case of `Cn1cc2c(n1)CCC(n1cnc3cnc4[nH]ccc4c31)C2` (racemic) [Example 956, 1-(2-Methyl-4,5,6,7-tetrahydro-2H-indazol-5-yl)-1,6-dihydro-1,3,5,6-tetraaza-as-indacene], the Ki came to 55.3 nM on JAK1, 89.8 nM at JAK2, 410 nM on JAK3 and 282 nM on TYK2.

As for `NC(=O)Cc1nc2cnc3[nH]ccc3c2n1C1CCCOC1` (racemic) [Example 960, 2-[1-(Tetrahydro-pyran-3-yl)-1,6-dihydro-1,3,5,6-tetraaza-as-indacen-2-yl]-acetamide], the Ki stood at 30.4 nM on JAK1, 208 nM at JAK2, 236 nM at JAK3 and 224 nM at TYK2.

`CNC(=O)Cc1nc2cnc3[nH]ccc3c2n1C1CCCOC1` (racemic) [Example 961, N-Methyl-2-[1-(tetrahydro-pyran-3-yl)-1,6-dihydro-1,3,5,6-tetraaza-as-indacen-2-yl]-acetamide]: the Ki on JAK1 came to 45.6 nM; on JAK2, 333 nM; on JAK3 it was 316 nM; at TYK2 it was 438 nM.

Regarding `CCNC(=O)Cc1nc2cnc3[nH]ccc3c2n1C1CCCOC1` (racemic) [Example 962, N-Ethyl-2-[1-(tetrahydro-pyran-3-yl)-1,6-dihydro-1,3,5,6-tetraaza-as-indacen-2-yl]-acetamide], the Ki came out at 35.8 nM at JAK1, 208 nM at JAK2, 177 nM at JAK3 and 399 nM on TYK2.

`CC(C)NC(=O)Cc1nc2cnc3[nH]ccc3c2n1C1CCCOC1` (racemic) [Example 963, N-Isopropyl-2-[1-(tetrahydro-pyran-3-yl)-1,6-dihydro-1,3,5,6-tetraaza-as-indacen-2-yl]-acetamide]: the Ki was found to be 43.2 nM on JAK1, 190 nM on JAK2, 119 nM on JAK3 and 373 nM on TYK2.

On to `O=C(Cc1nc2cnc3[nH]ccc3c2n1C1CCCOC1)NC1CCC1` (racemic) [Example 965, N-Cyclobutyl-2-[1-(tetrahydro-pyran-3-yl)-1,6-dihydro-1,3,5,6-tetraaza-as-indacen-2-yl]-acetamide], for which the Ki at JAK1 amounted to 31.6 nM; on JAK2, 160 nM; at JAK3 it was 107 nM; at TYK2, 306 nM.

Take `CC(C)CNC(=O)Cc1nc2cnc3[nH]ccc3c2n1C1CCCOC1` (racemic) [Example 966, N-Isobutyl-2-[1-(tetrahydro-pyran-3-yl)-1,6-dihydro-1,3,5,6-tetraaza-as-indacen-2-yl]-acetamide]: the Ki at JAK1 was 38 nM; at JAK2, 256 nM; at JAK3 it was 196 nM; on TYK2 it was 478 nM.

For `O=C(Cc1nc2cnc3[nH]ccc3c2n1C1CCCOC1)N1CCC1` (racemic) [Example 967, 1-Azetidin-1-yl-2-[1-(tetrahydro-pyran-3-yl)-1,6-dihydro-1,3,5,6-tetraaza-as-indacen-2-yl]-ethanone], the Ki on JAK1 came out at 131 nM; on JAK2 it was 776 nM; on JAK3, 484 nM; at TYK2 it was 1060 nM.

For `O=C(Cc1nc2cnc3[nH]ccc3c2n1C1CCCOC1)N1CCCC1` (racemic) [Example 968, 1-Pyrrolidin-1-yl-2-[1-(tetrahydro-pyran-3-yl)-1,6-dihydro-1,3,5,6-tetraaza-as-indacen-2-yl]-ethanone], the Ki at JAK1 stood at 131 nM; at JAK2, 891 nM; at JAK3 it was 361 nM; on TYK2, 1170 nM.

On to `CN(CCO)C(=O)Cc1nc2cnc3[nH]ccc3c2n1C1CCCOC1` (racemic) [Example 969, N-(2-Hydroxy-ethyl)-N-methyl-2-[1-(tetrahydro-pyran-3-yl)-1,6-dihydro-1,3,5,6-tetraaza-as-indacen-2-yl]-acetamide], for which the Ki at JAK1 was determined as 171 nM; on JAK2 it was 1090 nM; at JAK3 it was 511 nM; at TYK2, 1140 nM.

As to `CN(C)C(=O)CNC(=O)Cc1nc2cnc3[nH]ccc3c2n1C1CCCOC1` (racemic) [Example 970, N-Dimethylcarbamoylmethyl-2-[1-(tetrahydro-pyran-3-yl)-1,6-dihydro-1,3,5,6-tetraaza-as-indacen-2-yl]-acetamide], the Ki stood at 34.3 nM on JAK1, 124 nM on JAK2, 206 nM on JAK3 and 245 nM on TYK2.

Take `O=C(Cc1nc2cnc3[nH]ccc3c2n1C1CCCOC1)N1CC(F)(F)C1` (racemic) [Example 971, 1-(3,3-Difluoro-azetidin-1-yl)-2-[1-(tetrahydro-pyran-3-yl)-1,6-dihydro-1,3,5,6-tetraaza-as-indacen-2-yl]-ethanone]: the Ki on JAK1 is 114 nM; at JAK2, 564 nM; on JAK3, 352 nM; at TYK2, 799 nM.

On to `O=C(Cc1nc2cnc3[nH]ccc3c2n1C1CCCOC1)NC1CCC(F)(F)CC1` (racemic) [Example 972, N-(4,4-Difluoro-cyclohexyl)-2-[1-(tetrahydro-pyran-3-yl)-1,6-dihydro-1,3,5,6-tetraaza-as-indacen-2-yl]-acetamide], for which the Ki was 27.6 nM at JAK1, 113 nM on JAK2, 89.1 nM at JAK3 and 194 nM at TYK2.

Regarding `O=C(Cc1nc2cnc3[nH]ccc3c2n1C1CCCOC1)NCC(F)F` (racemic) [Example 973, N-(2,2-Difluoro-ethyl)-2-[1-(tetrahydro-pyran-3-yl)-1,6-dihydro-1,3,5,6-tetraaza-as-indacen-2-yl]-acetamide], the Ki at JAK1 worked out at 23 nM; on JAK2 it was 152 nM; on JAK3, 130 nM; on TYK2, 215 nM.

Consider `O=C(Cc1nc2cnc3[nH]ccc3c2n1C1CCCOC1)NC1CCCC1` (racemic) [Example 974, N-Cyclopentyl-2-[1-(tetrahydro-pyran-3-yl)-1,6-dihydro-1,3,5,6-tetraaza-as-indacen-2-yl]-acetamide], for which the Ki at JAK1 amounted to 25.6 nM; at JAK2, 110 nM; on JAK3 it was 74.6 nM; at TYK2 it was 194 nM.

On to `O=C(Cc1nc2cnc3[nH]ccc3c2n1C1CCCOC1)NCCn1ccnc1` (racemic) [Example 975, N-(2-Imidazol-1-yl-ethyl)-2-[1-(tetrahydro-pyran-3-yl)-1,6-dihydro-1,3,5,6-tetraaza-as-indacen-2-yl]-acetamide], for which the Ki on JAK1 amounted to 44.1 nM; on JAK2, 206 nM; on JAK3, 211 nM; on TYK2 it was 406 nM.

As for `O=C(Cc1nc2cnc3[nH]ccc3c2n1C1CCCOC1)N1CCN(CCO)CC1` (racemic) [Example 976, 1-[4-(2-Hydroxy-ethyl)-piperazin-1-yl]-2-[1-(tetrahydro-pyran-3-yl)-1,6-dihydro-1,3,5,6-tetraaza-as-indacen-2-yl]-ethanone], the Ki on JAK1 is 32.1 nM; on JAK2 it was 405 nM; at JAK3 it was 208 nM; on TYK2, 299 nM.

Take `CC(=O)N1CCN(C(=O)Cc2nc3cnc4[nH]ccc4c3n2C2CCCOC2)CC1` (racemic) [Example 977, 1-(4-Acetyl-piperazin-1-yl)-2-[1-(tetrahydro-pyran-3-yl)-1,6-dihydro-1,3,5,6-tetraaza-as-indacen-2-yl]-ethanone]: the Ki was 28.2 nM at JAK1, 363 nM at JAK2, 195 nM at JAK3 and 210 nM at TYK2.

Take `O=C(Cc1nc2cnc3[nH]ccc3c2n1C1CCCOC1)N1CCC(F)(F)CC1` (racemic) [Example 978, 1-(4,4-Difluoro-piperidin-1-yl)-2-[1-(tetrahydro-pyran-3-yl)-1,6-dihydro-1,3,5,6-tetraaza-as-indacen-2-yl]-ethanone]: the Ki amounted to 17.4 nM at JAK1, 305 nM on JAK2, 124 nM at JAK3 and 157 nM on TYK2.
